Assay results reported in EP4768499A1, “MACROCYCLIC PEPTIDE COMPOUND HAVING CELL MEMBRANE PERMEABILITY AND METABOLIC STABILITY, AND LIBRARY CONTAINING SAME” (Chugai Seiyaku Kabushiki Kaisha, priority 2023, dated 2025).
Where two headings read alike, the source gives them in different places. Starred links: 1 amine or outer side, 2 acyl side, 3 side chain; linkers in the order of their positions; H or OH if unused. Positions of bridges follow the written chain, without caps; N, C: chain ends. Non-standard residues stand in square brackets, D forms with d. Residues, ends and D or L forms follow the SMILES beside them. *: point of attachment. NMedβ3hAla = C[C@H](CC(=O)[*:2])N(C)[*:1]; NMeF = CN[C@@H](Cc1ccccc1)C(=O)O; NMeGABA = CN(CCCC(=O)[*:2])[*:1]; NMeI = CC[C@H](C)[C@H](NC)C(=O)O; NMeT = CN[C@H](C(=O)O)[C@@H](C)O; hPhe = N[C@@H](CCc1ccccc1)C(=O)O; NMeβAla = CN(CCC(=O)[*:2])[*:1]; NMeL = CN[C@@H](CC(C)C)C(=O)O; NMeV = CN[C@H](C(=O)O)C(C)C; d(β3hA) = C[C@@H](N)CC(=O)O; NMeAbu = CC[C@H](NC)C(=O)O; NMeA = CN[C@@H](C)C(=O)O; Piperidide = C1CCN(*)CC1; dNMeA = CN[C@H](C)C(=O)O; Abu = CC[C@H](N)C(=O)O; βAla = NCCC(=O)O; Sar = CNCC(=O)O; tBu = CC(C)(C)*

Tests used:
[1] = Metabolic stability test: liver microsomal stability assay; type: in vitro ADME, mouse; details: for microsomal CLint at 1 µM: male, pH 7.4, presence of NADPH, read-out: Mouse Hepatic Microsome CLh,int NADPH(+)
Caco-2 cells = assay: Membrane permeability test using Caco-2 cells with preincubation; type: in vitro ADME
[2] = as above; type: in vitro ADME; details: Caco-2
[3] = mouse liver microsomes 0.5 mg protein/mL, compound 1 µM
[4] = mouse liver microsomes 0.5 mg protein/mL, compound 1 µM, absence of NADPH
[5] = Caco-2 cells, preincubation 20 to 24 hours, apical FaSSIF/HBSS 1% DMSO pH 6.0, basal HBSS 4% BSA pH 7.4, basal sample at 180 minutes
[6] = preincubation 20 to 24 hours, Apical FaSSIF/HBSS pH 6.0, Basal HBSS 4% BSA pH 7.4, 180 minutes, read-out: Caco2 Papp

SMILES | microsomal CLint at 1 µM [1, 3] [µL/min/mg] | Mouse Hepatic Microsome CLh,int NADPH(-) [1, 4] [µL/min/mg Protein] | Caco2 Papp (10^-6 cm/sec) (Caco-2 cells; [5]) | Papp A→B [2, 6] [×10⁻⁶ cm/s] | Mouse Hepatic Microsome CLh,int NADPH(-) [1] [µL/min/mg Protein] | Caco2 Papp (10^-6 cm/sec) (Caco-2 cells; Caco-2) | Papp A→B [2] [×10⁻⁶ cm/s]
CC[C@H](C)[C@H]1C(=O)N(C)[C@@H](CC(C)C)C(=O)N[C@H](C(=O)N2CCCCC2)CC(=O)N(C)CCCC(=O)N[C@@H](CC(C)C)C(=O)N(C)[C@@H](CC(C)C)C(=O)N(C)[C@@H](C)C(=O)N(C)[C@@H](Cc2ccccc2)C(=O)N[C@@H](C)C(=O)N(C)[C@@H](Cc2ccccc2)C(=O)N(C)[C@@H](CC)C(=O)N(C)[C@@H](CC(C)C)C(=O)N[C@@H]([C@@H](C)O)C(=O)N(C)[C@@H](C)C(=O)N1C [pd048] ([NMeGABA]L[NMeL][NMeA][NMeF]A[NMeF][NMeAbu][NMeL]T[NMeA][NMeI][NMeL]D-Piperidide; lactam N-14) | 30.2 | 20.7 | 0.28 10^-6 cm/sec | 0.28 |  |  | 
CC[C@H]1C(=O)N(C)[C@@H](C)C(=O)N[C@@H](CC(C)C)C(=O)N(C)[C@@H](C(C)C)C(=O)N[C@H](C)CC(=O)N[C@H](C(C)C)C(=O)N(C)[C@@H](CC(C)C)C(=O)N[C@@H](CC(C)C)C(=O)N(C)[C@@H](C(C)C)C(=O)N(C)[C@@H](CC(C)C)C(=O)N(C)CC(=O)N[C@@H]([C@@H](C)O)C(=O)N(C)[C@@H](Cc2ccccc2)C(=O)N[C@@H](COC(C)(C)C)C(=O)N1C [pd049] (cyclo(L[NMeV][NMeL][Sar]T[NMeF]S(tBu)[NMeAbu][NMeA]L[NMeV][d(β3hA)][dV][NMeL])) | 30.6 | 29.1 | 0.32 10^-6 cm/sec | 0.32 |  |  | 
CC[C@H](C)[C@@H]1NC(=O)[C@H](C)N(C)C(=O)[C@H]([C@@H](C)O)N(C)C(=O)[C@H](CC(C)C)N(C)C(=O)[C@H]([C@@H](C)CC)NC(=O)[C@H](Cc2ccccc2)N(C)C(=O)[C@H](Cc2ccccc2)N(C)C(=O)[C@H](C)NC(=O)[C@H](COC(C)(C)C)NC(=O)[C@H](CC)N(C)C(=O)[C@H](C(C)C)NC(=O)CCCN(C)C(=O)C[C@@H](C)NC(=O)[C@H](C(C)C)N(C)C1=O [pd050] (cyclo(A[NMeF][NMeF]I[NMeL][NMeT][NMeA]I[NMeV][d(β3hA)][NMeGABA]V[NMeAbu]S(tBu))) | 13.2 | 15.9 | 0.54 10^-6 cm/sec | 0.54 |  |  | 
CC[C@H](C)[C@H]1C(=O)N[C@@H]([C@@H](C)O)C(=O)N(C)CC(=O)N(C)[C@@H](CC(C)C)C(=O)N[C@@H](CC(C)C)C(=O)N[C@H](C)CC(=O)N(C)[C@@H](C)C(=O)N[C@@H](CC(C)C)C(=O)N(C)[C@@H](C)C(=O)N(C)[C@@H](CC(C)C)C(=O)N[C@@H](COC(C)(C)C)C(=O)N(C)[C@@H](Cc2ccccc2)C(=O)N[C@@H](C(C)C)C(=O)N(C)[C@@H](CC(C)C)C(=O)N1C [pd052] (cyclo(L[NMeA][NMeL]S(tBu)[NMeF]V[NMeL][NMeI]T[Sar][NMeL]L[d(β3hA)][NMeA])) | 28 | 32.0 | 1.01 10^-6 cm/sec | 1.01 |  |  | 
CC[C@@H]1NC(=O)[C@H](CC(C)C)N(C)C(=O)[C@H]([C@@H](C)CC)NC(=O)[C@H](CC(C)C)N(C)C(=O)C[C@@H](C)NC(=O)[C@H](C(C)C)N(C)C(=O)[C@H](CC(C)C)NC(=O)[C@H](CC)N(C)C(=O)[C@H](Cc2ccccc2)N(C)C(=O)[C@@H]2CCCN2C(=O)[C@H](CC(C)C)NC(=O)[C@H]([C@@H](C)O)N(C)C(=O)[C@H](C)NC(=O)[C@H](CC(C)C)N(C)C1=O [pd053] (cyclo(A[NMeT]LP[NMeF][NMeAbu]L[NMeV][d(β3hA)][NMeL]I[NMeL][Abu][NMeL])) | 45.7 | 24.1 | 1.64 10^-6 cm/sec | 1.64 |  |  | 
CC[C@H](C)[C@@H]1NC(=O)[C@@H]2CCCN2C(=O)[C@H](C(C)C)N(C)C(=O)[C@H](CC(C)C)NC(=O)[C@@H](C)N(C)C(=O)C[C@@H](C)NC(=O)[C@H](C(C)C)N(C)C(=O)[C@H](Cc2ccccc2)N(C)C(=O)[C@H](COC(C)(C)C)NC(=O)[C@H](CC(C)C)N(C)C(=O)[C@H](C)N(C)C(=O)[C@H](CC(C)C)N(C)C(=O)[C@H]([C@@H](C)O)NC(=O)[C@H](Cc2ccccc2)N(C)C1=O [pd054] (cyclo(I[NMeF]T[NMeL][NMeA][NMeL]S(tBu)[NMeF][NMeV][d(β3hA)][dNMeA]L[NMeV]P)) | 32.5 | 25.1 | 0.49 10^-6 cm/sec | 0.49 |  |  | 
CC[C@@H]1NC(=O)[C@H](C)N(C)C(=O)[C@H](C(C)C)N(C)C(=O)[C@H]([C@@H](C)CC)NC(=O)[C@H](C)N(C)C(=O)CCCN(C)C(=O)C[C@@H](C)NC(=O)[C@H](C(C)C)N(C)C(=O)[C@H](CCc2ccccc2)NC(=O)CCN(C)C(=O)[C@H]([C@@H](C)O)N(C)C(=O)[C@H](CC(C)C)N(C)C(=O)[C@H]([C@@H](C)CC)NC(=O)[C@H](Cc2ccccc2)N(C)C1=O [pd055] (cyclo([Abu][NMeF]I[NMeL][NMeT][NMeβAla][hPhe][NMeV][d(β3hA)][NMeGABA][NMeA]I[NMeV][NMeA])) | 27.1 | 15.0 | 0.12 10^-6 cm/sec | 0.12 |  |  | 
CC[C@H](C)[C@@H]1NC(=O)[C@H](CC(C)C)N(C)C(=O)[C@H](CC(C)C)NC(=O)[C@H](C)N(C)C(=O)[C@H](Cc2ccccc2)N(C)C(=O)[C@@H]2CCCN2C(=O)[C@H](CC(C)C)N(C)C(=O)[C@H](CCc2ccccc2)NC(=O)CCN(C)C(=O)C[C@@H](C)NC(=O)[C@H](CC(C)C)N(C)C(=O)[C@H]([C@@H](C)O)NC(=O)[C@H](C)N(C)C(=O)[C@H](C(C)C)N(C)C1=O [pd056] (cyclo(I[NMeV][NMeA]T[NMeL][d(β3hA)][NMeβAla][hPhe][NMeL]P[NMeF][NMeA]L[NMeL])) | 55.9 | 30.2 | 0.27 10^-6 cm/sec | 0.27 |  |  | 
CC[C@H]1C(=O)N[C@@H](COC(C)(C)C)C(=O)N(C)[C@@H](Cc2ccccc2)C(=O)N(C)[C@@H](C(C)C)C(=O)N[C@H](C)CC(=O)N(C)[C@H](C)C(=O)N(C)[C@@H](CC(C)C)C(=O)N(C)[C@@H](C(C)C)C(=O)N2CCC[C@H]2C(=O)N[C@@H](C(C)C)C(=O)N(C)[C@@H](Cc2ccccc2)C(=O)N[C@@H]([C@@H](C)O)C(=O)N(C)[C@@H](CC(C)C)C(=O)N(C)[C@@H](C)C(=O)N1C [pd058] (cyclo([NMeA][NMeAbu]S(tBu)[NMeF][NMeV][d(β3hA)][dNMeA][NMeL][NMeV]PV[NMeF]T[NMeL])) | 16.3 | 14.8 | 0.72 10^-6 cm/sec | 0.72 |  |  | 
CC[C@H](C)[C@@H]1NC(=O)[C@H](C)N(C)C(=O)CCCN(C)C(=O)C[C@@H](C)NC(=O)[C@H](C(C)C)N(C)C(=O)[C@H](CC(C)C)N(C)C(=O)[C@H](C)N(C)C(=O)[C@H]([C@@H](C)O)N(C)C(=O)[C@H](CCc2ccccc2)NC(=O)[C@H](C(C)C)NC(=O)[C@H](Cc2ccccc2)N(C)C(=O)[C@H](CC)N(C)C(=O)[C@H](C)N(C)C(=O)[C@H](C(C)C)N(C)C1=O [pd059] (cyclo(I[NMeV][NMeA][NMeAbu][NMeF]V[hPhe][NMeT][NMeA][NMeL][NMeV][d(β3hA)][NMeGABA][NMeA])) | 12.7 | 18.6 | 0.52 10^-6 cm/sec | 0.52 |  |  | 
CC[C@H](C)[C@@H]1NC(=O)[C@H](CC(C)C)N(C)C(=O)C[C@@H](C)NC(=O)[C@H](C(C)C)N(C)C(=O)[C@H](COC(C)(C)C)NC(=O)[C@H](CC)N(C)C(=O)[C@H](Cc2ccccc2)N(C)C(=O)[C@H](CC(C)C)NC(=O)[C@@H]2CCCN2C(=O)[C@H]([C@@H](C)O)N(C)C(=O)[C@H](CC(C)C)N(C)C(=O)[C@H](CC)N(C)C(=O)[C@H](C(C)C)N(C)C(=O)[C@H](CC(C)C)N(C)C1=O [pd061] (cyclo(I[NMeL][NMeV][NMeAbu][NMeL][NMeT]PL[NMeF][NMeAbu]S(tBu)[NMeV][d(β3hA)][NMeL])) | 39 | 39.7 | 0.51 10^-6 cm/sec | 0.51 |  |  | 
CC[C@@H]1NC(=O)[C@H](CC(C)C)N(C)C(=O)CCNC(=O)[C@H](Cc2ccccc2)N(C)C(=O)[C@H](Cc2ccccc2)N(C)C(=O)CNC(=O)[C@H]([C@@H](C)CC)NC(=O)[C@H](CC(C)C)N(C)C(=O)CCCN(C)C(=O)C[C@@H](C)N(C)C(=O)[C@H](CC(C)C)NC(=O)[C@H]([C@@H](C)CC)NC(=O)[C@H](C)N(C)C(=O)[C@H](C(C)C)NC1=O [pd062] (cyclo([Abu]V[NMeA]IL[NMedβ3hAla][NMeGABA][NMeL]IG[NMeF][NMeF][βAla][NMeL])) |  |  |  |  | 24.1 | <0.11 10^-6 cm/sec | < 0.11
